Test results as given in US8211445B2, “PSM peptides as vaccine targets against methicillin-resistant Staphylococcus” (The United States of America, as represented by the …, priority 2007, dated 2012).
Residues, ends and D or L forms follow the SMILES beside them.

Test system: sheep red blood cells
Assay: Hemolysis of sheep red blood cells
Format: cell-based
Conditions: 10 μg/ml, compared to other PSMs (FIG. 21G)
Method: FIG. 8 includes several graphs showing hemolytic activities of PSMs. […] In FIGS. 8A and 8B, the data are mean±SEM of three independent measurements. P values are vs. DMSO in FIG. 8A and vs. wild-type in FIG. 8B. Hemolytic activity was determined by incubating samples with a 2% (v/v) suspension of sheep red blood cells and incubation at 37° C. for 1 hour. Synthetic PSM peptides or filtered bacterial overnight culture supernatants were diluted in PBS and added to sheep erythrocytes at a final concentration of 10 μg/ml for the peptides and 1:200 for culture filtrates.
Hemolysis: Hemolytic activity of PSM peptides was determined by incubating samples with a 2% (v/v) sheep red blood cells and incubation for 1 h at 37° C. as described (Wang et al., Nature Med. 13:1510-1514, 2007). Hemolytic activity of S. aureus wild-type and psm-mec deletion strains was assessed by streaking on sheep blood agar plates.

## CC[C@H](C)[C@H](NC(=O)[C@H](CS)NC(=O)[C@@H](NC(=O)[C@H](CCCCN)NC(=O)[C@@H](NC(=O)[C@H](CC(C)C)NC(=O)[C@H](CC(=O)O)NC(=O)[C@@H](NC(=O)[C@@H](NC(=O)[C@H](CO)NC(=O)[C@@H](NC(=O)[C@@H](NC(=O)[C@@H](NC(=O)CNC(=O)[C@@H](NC(=O)[C@H](Cc1ccccc1)NC(=O)[C@H](CC(=O)O)NC(=O)[C@H](CCSC)NC=O)[C@@H](C)O)C(C)C)[C@@H](C)CC)[C@@H](C)O)[C@@H](C)CC)[C@@H](C)CC)[C@@H](C)CC)[C@@H](C)O)C(=O)N[C@@H](CCC(N)=O)C(=O)N[C@@H](C)C(=O)N[C@@H](Cc1ccccc1)C(=O)NCC(=O)O [PSM-mec] (HELM PEPTIDE1{[O=C[*:2]].M.D.F.T.G.V.I.T.S.I.I.D.L.I.K.T.C.I.Q.A.F.G}$$$$V2.0)
  lysis of sheep erythrocytes: intermediate range
